Data published in paper PMC5862592, “CDK8/19 inhibition induces premature G1/S transition and ATR-dependent cell death in prostate cancer cells” (Oncotarget, 2018).
Where two headings read alike, the source gives them in different places.

Assays:
Assay in all cases: biochemical
Set-up in all cases: KINOMEscan active site-directed competition binding assay (DiscoveRx), 456 kinases, per cent of control at 300 nM
Details in all cases: read-out: Percent of Control (%)
MUSK = MUSK (Homo sapiens, UniProt O15146)
Method in brief: (§1)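 Values reflect active-site competition binding from a screen of 456 kinases, with test compounds at a fixed 300 nmol/L.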

GCN2(Kin.Dom.2,S808G) = target: T1, GCN2(Kin.Dom.2,S808G) (Homo sapiens, UniProt Q9P2K8, S808G)
T1 construct: gene EIF2AK4; Kin.Dom.2
Method in brief: as §1

EGFR(S752-I759del) = EGFR(S752-I759del) (Homo sapiens, UniProt P00533, DEL752-759)
Method in brief: as §1

SGK = target: T2, SGK (Homo sapiens, UniProt O00141)
T2 construct: gene SGK1
T2 sequence (O00141 whole entry): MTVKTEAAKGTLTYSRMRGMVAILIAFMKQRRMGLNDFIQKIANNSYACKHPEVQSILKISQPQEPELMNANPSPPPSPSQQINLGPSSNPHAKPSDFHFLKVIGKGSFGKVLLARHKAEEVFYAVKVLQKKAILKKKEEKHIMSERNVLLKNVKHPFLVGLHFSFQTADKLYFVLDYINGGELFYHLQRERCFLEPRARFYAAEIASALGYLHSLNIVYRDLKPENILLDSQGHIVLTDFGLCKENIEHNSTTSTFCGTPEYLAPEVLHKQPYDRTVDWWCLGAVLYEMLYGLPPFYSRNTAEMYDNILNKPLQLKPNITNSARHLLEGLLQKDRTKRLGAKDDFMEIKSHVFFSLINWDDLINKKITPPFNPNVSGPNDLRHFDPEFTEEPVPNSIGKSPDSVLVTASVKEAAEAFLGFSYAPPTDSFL
Method in brief: as §1

ERK1 = target: T3, ERK1 (Homo sapiens, UniProt P27361)
T3 construct: gene MAPK3
T3 sequence (P27361 whole entry): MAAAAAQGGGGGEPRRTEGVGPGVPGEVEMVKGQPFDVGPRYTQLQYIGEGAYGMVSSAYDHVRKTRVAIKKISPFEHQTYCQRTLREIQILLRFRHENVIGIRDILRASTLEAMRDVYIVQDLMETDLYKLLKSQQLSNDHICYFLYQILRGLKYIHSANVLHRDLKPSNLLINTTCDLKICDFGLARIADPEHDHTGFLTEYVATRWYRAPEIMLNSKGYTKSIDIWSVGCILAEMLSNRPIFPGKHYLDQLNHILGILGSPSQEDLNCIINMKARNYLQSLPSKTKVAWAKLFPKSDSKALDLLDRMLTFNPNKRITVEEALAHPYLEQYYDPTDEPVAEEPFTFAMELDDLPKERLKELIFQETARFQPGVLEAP
Method in brief: as §1

EGFR(G719S) = EGFR(G719S) (Homo sapiens, UniProt P00533, G719S)
EGFR(G719S), sequence (P00533 whole entry G719S): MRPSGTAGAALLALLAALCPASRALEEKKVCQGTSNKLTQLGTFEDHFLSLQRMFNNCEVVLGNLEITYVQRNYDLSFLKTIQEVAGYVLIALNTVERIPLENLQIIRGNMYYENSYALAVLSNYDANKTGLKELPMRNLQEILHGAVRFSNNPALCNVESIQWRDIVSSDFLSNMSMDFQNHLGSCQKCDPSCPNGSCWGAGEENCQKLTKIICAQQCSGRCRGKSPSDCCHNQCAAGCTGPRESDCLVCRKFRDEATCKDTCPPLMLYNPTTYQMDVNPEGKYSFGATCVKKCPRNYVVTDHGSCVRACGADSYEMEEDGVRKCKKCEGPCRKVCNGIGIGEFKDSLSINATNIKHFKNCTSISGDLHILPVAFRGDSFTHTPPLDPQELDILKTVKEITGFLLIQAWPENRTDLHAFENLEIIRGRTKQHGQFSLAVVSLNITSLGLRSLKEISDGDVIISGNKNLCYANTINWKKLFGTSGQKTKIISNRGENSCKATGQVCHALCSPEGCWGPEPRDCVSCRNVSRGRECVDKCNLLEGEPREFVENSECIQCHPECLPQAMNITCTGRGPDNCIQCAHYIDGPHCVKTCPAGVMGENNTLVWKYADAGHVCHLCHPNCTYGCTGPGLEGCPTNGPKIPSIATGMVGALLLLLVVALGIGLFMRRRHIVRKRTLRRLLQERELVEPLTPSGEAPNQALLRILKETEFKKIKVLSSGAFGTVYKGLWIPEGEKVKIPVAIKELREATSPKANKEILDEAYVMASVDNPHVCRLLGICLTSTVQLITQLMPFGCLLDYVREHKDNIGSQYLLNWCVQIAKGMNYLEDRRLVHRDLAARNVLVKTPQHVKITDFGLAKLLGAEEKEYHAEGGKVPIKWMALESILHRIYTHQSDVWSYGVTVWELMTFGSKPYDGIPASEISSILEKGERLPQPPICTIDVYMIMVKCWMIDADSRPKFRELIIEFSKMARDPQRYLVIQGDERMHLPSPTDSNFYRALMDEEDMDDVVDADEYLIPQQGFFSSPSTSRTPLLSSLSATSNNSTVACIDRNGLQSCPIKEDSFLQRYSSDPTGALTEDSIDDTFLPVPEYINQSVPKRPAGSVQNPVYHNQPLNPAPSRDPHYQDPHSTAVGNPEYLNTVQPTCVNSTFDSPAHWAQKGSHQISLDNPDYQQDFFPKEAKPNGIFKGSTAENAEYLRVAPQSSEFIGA
Method in brief: as §1

PIK3C2G = PIK3C2G (Homo sapiens, UniProt O75747)
Method in brief: as §1

MKNK2 = MKNK2 (Homo sapiens, UniProt Q9HBH9)
MKNK2, sequence (Q9HBH9 whole entry): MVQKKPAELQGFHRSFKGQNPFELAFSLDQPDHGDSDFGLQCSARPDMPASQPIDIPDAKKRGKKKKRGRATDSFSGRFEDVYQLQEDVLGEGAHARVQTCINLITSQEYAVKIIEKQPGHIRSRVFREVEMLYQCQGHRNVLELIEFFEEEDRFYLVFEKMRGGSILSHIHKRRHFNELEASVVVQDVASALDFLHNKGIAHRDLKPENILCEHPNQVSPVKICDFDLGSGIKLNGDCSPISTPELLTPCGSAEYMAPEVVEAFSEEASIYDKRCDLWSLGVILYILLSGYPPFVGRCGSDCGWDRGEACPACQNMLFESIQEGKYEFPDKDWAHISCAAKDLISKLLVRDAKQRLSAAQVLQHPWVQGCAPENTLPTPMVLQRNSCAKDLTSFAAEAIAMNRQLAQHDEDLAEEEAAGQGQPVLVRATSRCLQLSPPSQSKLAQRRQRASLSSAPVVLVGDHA
Method in brief: as §1

EPHB4 = EPHB4 (Homo sapiens, UniProt P54760)
Method in brief: as §1

GSK3B = GSK3B (Homo sapiens, UniProt P49841)
Method in brief: as §1

LYN = LYN (Homo sapiens, UniProt P07948)
Method in brief: as §1

PDGFRB = PDGFRB (Homo sapiens, UniProt P09619)
Method in brief: as §1

HIPK4 = HIPK4 (Homo sapiens, UniProt Q8NE63)
Method in brief: as §1

EGFR(E746-A750del) = EGFR(E746-A750del) (Homo sapiens, UniProt P00533, DEL746-750)
EGFR(E746-A750del), sequence (P00533 with tags, fused parts or gaps DEL746-750): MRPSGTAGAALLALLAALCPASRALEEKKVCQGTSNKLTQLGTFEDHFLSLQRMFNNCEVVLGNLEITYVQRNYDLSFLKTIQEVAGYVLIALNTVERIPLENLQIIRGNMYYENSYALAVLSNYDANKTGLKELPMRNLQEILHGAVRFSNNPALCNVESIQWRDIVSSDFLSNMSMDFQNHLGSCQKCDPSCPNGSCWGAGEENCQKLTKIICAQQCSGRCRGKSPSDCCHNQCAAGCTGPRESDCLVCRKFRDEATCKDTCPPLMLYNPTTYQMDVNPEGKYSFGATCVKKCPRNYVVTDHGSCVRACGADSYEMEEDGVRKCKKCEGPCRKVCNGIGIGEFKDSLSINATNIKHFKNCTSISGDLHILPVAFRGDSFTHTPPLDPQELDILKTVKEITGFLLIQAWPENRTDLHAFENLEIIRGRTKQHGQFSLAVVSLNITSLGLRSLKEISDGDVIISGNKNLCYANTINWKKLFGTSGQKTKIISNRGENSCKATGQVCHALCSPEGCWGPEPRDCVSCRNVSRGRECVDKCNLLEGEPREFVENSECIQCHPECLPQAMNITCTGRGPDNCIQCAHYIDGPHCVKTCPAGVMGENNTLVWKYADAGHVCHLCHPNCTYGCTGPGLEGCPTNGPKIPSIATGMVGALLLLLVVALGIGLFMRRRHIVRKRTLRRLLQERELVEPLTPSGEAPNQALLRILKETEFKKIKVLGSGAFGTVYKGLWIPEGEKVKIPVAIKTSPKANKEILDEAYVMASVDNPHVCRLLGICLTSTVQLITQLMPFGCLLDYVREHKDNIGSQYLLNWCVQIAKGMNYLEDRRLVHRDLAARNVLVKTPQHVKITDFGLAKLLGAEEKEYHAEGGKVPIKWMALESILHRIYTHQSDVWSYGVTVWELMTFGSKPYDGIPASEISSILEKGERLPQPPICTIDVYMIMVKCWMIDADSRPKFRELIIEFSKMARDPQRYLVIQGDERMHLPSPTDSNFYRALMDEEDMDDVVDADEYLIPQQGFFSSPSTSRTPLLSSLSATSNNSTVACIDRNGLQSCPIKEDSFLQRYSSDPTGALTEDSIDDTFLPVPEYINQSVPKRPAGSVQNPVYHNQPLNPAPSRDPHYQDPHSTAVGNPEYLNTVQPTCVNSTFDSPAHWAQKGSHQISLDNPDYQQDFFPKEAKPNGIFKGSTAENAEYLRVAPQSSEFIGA
Method in brief: as §1

ERK4 = target: T4, ERK4 (Homo sapiens, UniProt P31152)
T4 construct: gene MAPK4
Method in brief: as §1

EIF2AK1 = EIF2AK1 (Homo sapiens, UniProt Q9BQI3)
Method in brief: as §1

EPHB3 = EPHB3 (Homo sapiens, UniProt P54753)
Method in brief: as §1

FGFR3 = FGFR3 (Homo sapiens, UniProt P22607)
FGFR3, sequence (P22607 whole entry): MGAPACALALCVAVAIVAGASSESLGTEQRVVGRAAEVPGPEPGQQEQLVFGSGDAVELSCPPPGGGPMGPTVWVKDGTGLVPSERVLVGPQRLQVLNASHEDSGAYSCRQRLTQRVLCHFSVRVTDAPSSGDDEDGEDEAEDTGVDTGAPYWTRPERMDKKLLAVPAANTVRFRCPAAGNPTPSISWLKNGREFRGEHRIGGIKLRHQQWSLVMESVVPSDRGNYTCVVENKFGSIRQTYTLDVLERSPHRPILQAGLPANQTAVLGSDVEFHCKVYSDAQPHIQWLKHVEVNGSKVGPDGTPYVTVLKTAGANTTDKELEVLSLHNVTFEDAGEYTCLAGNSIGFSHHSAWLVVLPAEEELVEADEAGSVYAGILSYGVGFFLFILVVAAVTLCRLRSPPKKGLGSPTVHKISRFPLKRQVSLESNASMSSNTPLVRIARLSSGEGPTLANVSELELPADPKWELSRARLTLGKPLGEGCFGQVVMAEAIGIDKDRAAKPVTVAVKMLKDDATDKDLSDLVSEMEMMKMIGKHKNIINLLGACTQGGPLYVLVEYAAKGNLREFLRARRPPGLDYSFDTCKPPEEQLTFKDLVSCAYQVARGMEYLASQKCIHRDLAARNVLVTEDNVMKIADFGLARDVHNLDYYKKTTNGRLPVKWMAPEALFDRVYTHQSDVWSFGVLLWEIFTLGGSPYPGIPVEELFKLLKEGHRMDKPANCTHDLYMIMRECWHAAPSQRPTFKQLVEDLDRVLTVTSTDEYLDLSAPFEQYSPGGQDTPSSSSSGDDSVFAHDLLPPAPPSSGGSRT
Method in brief: as §1

EGFR(L858R) = EGFR(L858R) (Homo sapiens, UniProt P00533, L858R)
Method in brief: as §1

p38-gamma = target: T5, p38-gamma (Homo sapiens, UniProt P53778)
T5 construct: gene MAPK12
T5 sequence (P53778 whole entry): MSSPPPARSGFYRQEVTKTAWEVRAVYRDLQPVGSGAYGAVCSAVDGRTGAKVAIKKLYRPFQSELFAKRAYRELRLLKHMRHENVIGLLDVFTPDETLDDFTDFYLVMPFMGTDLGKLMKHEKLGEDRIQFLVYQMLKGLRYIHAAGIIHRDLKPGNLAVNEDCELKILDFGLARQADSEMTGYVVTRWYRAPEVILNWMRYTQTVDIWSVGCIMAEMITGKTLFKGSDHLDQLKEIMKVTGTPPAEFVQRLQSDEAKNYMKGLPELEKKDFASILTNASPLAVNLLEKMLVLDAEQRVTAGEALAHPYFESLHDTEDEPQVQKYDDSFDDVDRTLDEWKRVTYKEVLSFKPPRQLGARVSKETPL
Method in brief: as §1

IRAK1 = IRAK1 (Homo sapiens, UniProt P51617)
Method in brief: as §1

With `Cc1ncccc1Oc1sc(C(N)=O)c2c1-c1c(cnn1C)CC2` [T-474, 1-methyl-8-((2-methylpyridin-3-yl)oxy)-4,5-dihydro-1H-thieno[3,4-g]indazole-6-carboxamide] as the compound, how does the remaining binding at 0.3 µM (MUSK) read?
Its remaining binding at 0.3 µM is 100%.

And the remaining binding at 0.3 µM (GCN2(Kin.Dom.2,S808G))?
Its remaining binding at 0.3 µM is 100%.

And the remaining binding at 0.3 µM (EGFR(S752-I759del))?
Its remaining binding at 0.3 µM is 100%.

And the remaining binding at 0.3 µM (SGK)?
Its remaining binding at 0.3 µM is 100%.

And the remaining binding at 0.3 µM (ERK1)?
Its remaining binding at 0.3 µM is 100%.

What about the remaining binding at 0.3 µM (EGFR(G719S)) of the same compound?
The remaining binding at 0.3 µM was 92%.

What about the remaining binding at 0.3 µM (PIK3C2G) of the same compound?
Its remaining binding at 0.3 µM is 92%.

And the remaining binding at 0.3 µM (MKNK2)?
The remaining binding at 0.3 µM was 86%.

What about the remaining binding at 0.3 µM (EPHB4) of the same compound?
Its remaining binding at 0.3 µM is 100%.

What about the remaining binding at 0.3 µM (GSK3B) of the same compound?
The remaining binding at 0.3 µM was 94%.

And the remaining binding at 0.3 µM (LYN)?
Its remaining binding at 0.3 µM is 100%.

What about the remaining binding at 0.3 µM (PDGFRB) of the same compound?
The remaining binding at 0.3 µM was 100%.

And the remaining binding at 0.3 µM (HIPK4)?
The remaining binding at 0.3 µM was 68%.

What about the remaining binding at 0.3 µM (EGFR(E746-A750del)) of the same compound?
Its remaining binding at 0.3 µM is 87%.

And the remaining binding at 0.3 µM (ERK4)?
The remaining binding at 0.3 µM was 100%.

What about the remaining binding at 0.3 µM (EIF2AK1) of the same compound?
The remaining binding at 0.3 µM was 100%.

And the remaining binding at 0.3 µM (EPHB3)?
Its remaining binding at 0.3 µM is 100%.

What about the remaining binding at 0.3 µM (FGFR3) of the same compound?
The remaining binding at 0.3 µM was 97%.

And the remaining binding at 0.3 µM (EGFR(L858R))?
Its remaining binding at 0.3 µM is 71%.

And the remaining binding at 0.3 µM (p38-gamma)?
The remaining binding at 0.3 µM was 100%.

And the remaining binding at 0.3 µM (IRAK1)?
The remaining binding at 0.3 µM was 100%.

With `O=C(/C=C/c1cnccc1-c1ccc(F)cc1)Nc1ccc(CCc2nnco2)cc1` [T-418, (2E)-3-(4-(4-fluorophenyl)pyridin-3-yl)-N-(4-(2-(1,3,4-oxadiazol-2-yl)ethyl)phenyl)acrylamide] as the compound, how does the remaining binding at 0.3 µM (MUSK; sheet T-418) read?
Its remaining binding at 0.3 µM is 100%.

And the remaining binding at 0.3 µM (GCN2(Kin.Dom.2,S808G); sheet T-418)?
The remaining binding at 0.3 µM was 100%.

And the remaining binding at 0.3 µM (EGFR(S752-I759del); sheet T-418)?
The remaining binding at 0.3 µM was 98%.

And the remaining binding at 0.3 µM (SGK; sheet T-418)?
The remaining binding at 0.3 µM was 88%.

And the remaining binding at 0.3 µM (ERK1; sheet T-418)?
The remaining binding at 0.3 µM was 94%.

What about the remaining binding at 0.3 µM (EGFR(G719S); sheet T-418) of the same compound?
The remaining binding at 0.3 µM was 68%.

What about the remaining binding at 0.3 µM (PIK3C2G; sheet T-418) of the same compound?
Its remaining binding at 0.3 µM is 95%.

What about the remaining binding at 0.3 µM (MKNK2; sheet T-418) of the same compound?
The remaining binding at 0.3 µM was 97%.

What about the remaining binding at 0.3 µM (EPHB4; sheet T-418) of the same compound?
The remaining binding at 0.3 µM was 96%.

What about the remaining binding at 0.3 µM (GSK3B; sheet T-418) of the same compound?
The remaining binding at 0.3 µM was 98%.

And the remaining binding at 0.3 µM (LYN; sheet T-418)?
The remaining binding at 0.3 µM was 100%.

What about the remaining binding at 0.3 µM (PDGFRB; sheet T-418) of the same compound?
Its remaining binding at 0.3 µM is 100%.

And the remaining binding at 0.3 µM (HIPK4; sheet T-418)?
Its remaining binding at 0.3 µM is 84%.

And the remaining binding at 0.3 µM (EGFR(E746-A750del); sheet T-418)?
Its remaining binding at 0.3 µM is 92%.

What about the remaining binding at 0.3 µM (ERK4; sheet T-418) of the same compound?
Its remaining binding at 0.3 µM is 100%.

What about the remaining binding at 0.3 µM (EIF2AK1; sheet T-418) of the same compound?
Its remaining binding at 0.3 µM is 100%.

What about the remaining binding at 0.3 µM (EPHB3; sheet T-418) of the same compound?
The remaining binding at 0.3 µM was 98%.

What about the remaining binding at 0.3 µM (FGFR3; sheet T-418) of the same compound?
Its remaining binding at 0.3 µM is 100%.

And the remaining binding at 0.3 µM (EGFR(L858R); sheet T-418)?
Its remaining binding at 0.3 µM is 66%.

And the remaining binding at 0.3 µM (p38-gamma; sheet T-418)?
The remaining binding at 0.3 µM was 86%.

What about the remaining binding at 0.3 µM (IRAK1; sheet T-418) of the same compound?
Its remaining binding at 0.3 µM is 100%.
